Measured values taken from patent US10851102B2, “Imidazole and triazole containing bicyclic compounds as JAK inhibitors” (THERAVANCE BIOPHARMA R&D IP, LLC, priority 2019, dated 2020).
Where two headings read alike, the source gives them in different places.

Legend:
JAK3 = JAK3 (Homo sapiens (Human), UniProt P52333); test: Biochemical JAK and Tyk2 kinase assays (LanthaScreen): JAK3; settings: for JAK3 (pKi)-JAK1 (pKi): difference of pKi values, selectivity JAK3 over JAK1; for Ki: read-out: JAK 3 (pKi) (converted)
JAK3, sequence (P52333 whole entry): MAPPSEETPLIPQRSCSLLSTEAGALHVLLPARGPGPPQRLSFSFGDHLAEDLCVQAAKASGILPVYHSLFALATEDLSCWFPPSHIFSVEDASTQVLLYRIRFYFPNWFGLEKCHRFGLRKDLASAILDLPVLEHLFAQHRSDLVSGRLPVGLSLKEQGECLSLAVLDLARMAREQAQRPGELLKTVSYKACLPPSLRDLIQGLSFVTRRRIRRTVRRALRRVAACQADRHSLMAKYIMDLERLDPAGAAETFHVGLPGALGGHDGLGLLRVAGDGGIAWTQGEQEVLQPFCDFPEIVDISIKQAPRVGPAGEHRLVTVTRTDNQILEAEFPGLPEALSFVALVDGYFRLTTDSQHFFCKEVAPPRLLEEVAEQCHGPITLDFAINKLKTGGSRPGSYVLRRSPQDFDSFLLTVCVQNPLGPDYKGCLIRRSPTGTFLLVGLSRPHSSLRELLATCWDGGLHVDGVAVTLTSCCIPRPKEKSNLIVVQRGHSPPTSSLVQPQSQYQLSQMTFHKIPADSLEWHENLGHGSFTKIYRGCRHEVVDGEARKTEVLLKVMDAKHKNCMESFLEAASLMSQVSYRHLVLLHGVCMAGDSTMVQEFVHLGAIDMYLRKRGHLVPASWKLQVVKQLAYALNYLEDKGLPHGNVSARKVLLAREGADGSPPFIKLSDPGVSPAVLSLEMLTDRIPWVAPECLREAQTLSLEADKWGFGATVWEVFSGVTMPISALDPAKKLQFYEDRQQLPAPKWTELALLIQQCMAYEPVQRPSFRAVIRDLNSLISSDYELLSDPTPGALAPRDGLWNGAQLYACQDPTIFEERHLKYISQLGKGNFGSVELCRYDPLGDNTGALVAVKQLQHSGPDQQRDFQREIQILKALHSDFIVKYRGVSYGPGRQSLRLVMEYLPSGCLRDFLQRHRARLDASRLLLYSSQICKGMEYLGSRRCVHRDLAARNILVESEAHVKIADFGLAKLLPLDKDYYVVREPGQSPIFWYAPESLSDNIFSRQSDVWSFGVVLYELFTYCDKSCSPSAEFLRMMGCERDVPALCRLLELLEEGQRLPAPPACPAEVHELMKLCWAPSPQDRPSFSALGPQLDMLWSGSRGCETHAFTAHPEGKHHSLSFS
Protocol: (§1) Assay 1: Biochemical JAK and Tyk2 Kinase Assays
(§2) A panel of four LanthaScreen JAK biochemical assays (JAK1, 2, 3 and Tyk2) were carried in a common kinase reaction buffer (50 mM HEPES, pH 7.5, 0.01% Brij-35, 10 mM MgCl2, and 1 mM EGTA). Recombinant GST-tagged JAK enzymes and a GFP-tagged STAT1 peptide substrate were obtained from Life Technologies.
(§3) Serially or discretely diluted compounds were pre-incubated with each of the four JAK enzymes and the substrate in white 384-well microplates (Corning) at ambient temperature for 1 h. ATP was subsequently added to initiate the kinase reactions in 10 μL total volume, with 1% DMSO. […] Kinase reactions were allowed to proceed for 1 hour at ambient temperature before a 10 μL preparation of EDTA (10 mM final concentration) and Tb-anti-pSTAT1 (pTyr701) antibody (Life Technologies, 2 nM final concentration) in TR-FRET dilution buffer (Life Technologies) was added. The plates were allowed to incubate at ambient temperature for 1 h before being read on the EnVision reader (Perkin Elmer). Emission ratio signals (520 nm/495 nm) were recorded and utilized to calculate the percent inhibition values based on DMSO and background controls.
(§4) For dose-response analysis, percent inhibition data were plotted vs. compound concentrations, and IC50 values were determined from a 4-parameter robust fit model with the Prism software (GraphPad Software). Results were expressed as pIC50 (negative logarithm of IC50) and subsequently converted to pKi (negative logarithm of dissociation constant, Ki) using the Cheng-Prusoff equation.

[1] = test system: IL-2 stimulated pSTAT5 in Tall-1 T cells (JAK3); test: Cellular JAK3 potency assay: inhibition of IL-2 stimulated pSTAT5 in Tall-1 T cells; assay type: cell-based; settings: IL-2 300 ng/ml, pSTAT5 AlphaLisa, Tall-1 human T cell line; read-out: Tall-1 (pIC50) (converted)
Protocol: Assay 2: Cellular JAK3 Potency Assay: Inhibition of IL-2 Stimulated pSTAT5 in Tall-1 T Cells
The potency of test compounds for inhibition of interleukin-2 (IL-2) stimulated STATS phosphorylation was measured in the Tall-1 human T cell line (DSMZ) using AlphaLisa. Because IL-2 signals through JAK3, this assay provides a measure of JAK3 cellular potency.
Phosphorylated STATS was measured via the AlphaLISA SureFire Ultra pSTAT5 (Tyr694/699) kit (PerkinElmer).
Human T cells from the Tall-1 cell line were cultured in a 37° C., 5% CO2 humidified incubator in RPMI (Life Technologies) supplemented with 15% Heat Inactivated Fetal Bovine Serum (FBS, Life Technologies), 2 mM Glutamax (Life Technologies), 25 mM HEPES (Life Technologies) and 1× Pen/Strep (Life Technologies). Compounds were serially diluted in DMSO and dispensed acoustically to empty wells. Assay media (phenol red-free DMEM (Life Technologies) supplemented with 10% FBS (ATCC)) was dispensed (4 μL/well) and plates shaken at 900 rpm for 10 mins. Cells were seeded at 45,000 cells/well in assay media (4 μL/well), and incubated at 37° C., 5% CO2 for 1 hour, followed by the addition of IL-2 (R&D Systems; final concentration 300 ng/ml) in pre-warmed assay media ([…]) for 30 minutes. After cytokine stimulation, cells were lysed with 6 ul of 3× AlphaLisa Lysis Buffer (PerkinElmer) containing 1× PhosStop and Complete tablets (Roche). The lysate was shaken at 900 rpm for 10 minutes at room temperature (RT). Phosphorylated STATS was measured via the pSTAT5 AlphaLisa kit (PerkinElmer). Freshly prepared acceptor bead mixture was dispensed onto lysate (5 μL) under green filtered <100 lux light. Plates were shaken at 900 rpm for 2 mins, briefly spun down, and incubated for 2 hrs at RT in the dark. Donor beads were dispensed (5 μL) under green filtered <100 lux light. Plates were shaken at 900 rpm for 2 minutes, briefly spun down, and incubated overnight at RT in the dark. Luminescence was measured with excitation at 689 nm and emission at 570 nm using an EnVision plate reader (PerkinElmer) under green filtered <100 lux light.
To determine the inhibitory potency of test compounds in response to IL-2, the average emission intensity of beads bound to pSTAT5 was measured in a human T cell line. IC50 values were determined from analysis of the inhibition curves of signal intensity versus compound concentration. Data are expressed as pIC50 (negative decadic logarithm IC50) values (mean±standard deviation).

JAK1 = JAK1 (Homo sapiens (Human), UniProt P23458); test: Biochemical JAK and Tyk2 kinase assays (LanthaScreen): JAK1; settings: 1 h pre-incubation, ATP at Km; pIC50 converted to pKi by Cheng-Prusoff
JAK1, sequence (P23458 whole entry): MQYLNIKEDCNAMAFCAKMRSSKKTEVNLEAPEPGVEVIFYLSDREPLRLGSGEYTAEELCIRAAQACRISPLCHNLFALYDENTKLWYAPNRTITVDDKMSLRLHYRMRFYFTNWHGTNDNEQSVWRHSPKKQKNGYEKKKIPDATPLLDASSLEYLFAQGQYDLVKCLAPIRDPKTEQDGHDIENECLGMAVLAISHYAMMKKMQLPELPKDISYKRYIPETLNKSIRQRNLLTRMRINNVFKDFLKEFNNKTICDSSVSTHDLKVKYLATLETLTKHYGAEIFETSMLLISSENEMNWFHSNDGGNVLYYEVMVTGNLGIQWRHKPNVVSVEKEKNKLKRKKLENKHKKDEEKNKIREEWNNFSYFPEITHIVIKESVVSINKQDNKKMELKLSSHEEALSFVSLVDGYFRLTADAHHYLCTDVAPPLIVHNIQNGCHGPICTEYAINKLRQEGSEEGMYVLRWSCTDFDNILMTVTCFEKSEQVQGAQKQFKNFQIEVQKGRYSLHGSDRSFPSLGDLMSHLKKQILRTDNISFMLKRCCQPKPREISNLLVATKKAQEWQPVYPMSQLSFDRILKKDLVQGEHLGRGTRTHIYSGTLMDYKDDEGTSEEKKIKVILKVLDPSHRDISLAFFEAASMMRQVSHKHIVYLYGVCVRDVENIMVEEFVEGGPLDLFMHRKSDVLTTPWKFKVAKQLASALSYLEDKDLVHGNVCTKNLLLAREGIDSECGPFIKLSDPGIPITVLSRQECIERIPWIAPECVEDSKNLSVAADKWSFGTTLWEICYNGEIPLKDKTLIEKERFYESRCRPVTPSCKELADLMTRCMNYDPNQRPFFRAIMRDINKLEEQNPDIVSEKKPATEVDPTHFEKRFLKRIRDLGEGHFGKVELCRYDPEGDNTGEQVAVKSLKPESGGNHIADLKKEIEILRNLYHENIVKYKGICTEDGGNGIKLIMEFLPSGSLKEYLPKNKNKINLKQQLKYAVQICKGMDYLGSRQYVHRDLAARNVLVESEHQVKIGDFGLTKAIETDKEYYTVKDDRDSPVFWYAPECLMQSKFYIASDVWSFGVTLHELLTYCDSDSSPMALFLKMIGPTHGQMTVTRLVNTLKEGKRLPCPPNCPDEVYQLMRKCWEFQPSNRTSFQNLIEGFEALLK
Protocol: as §1, §2, §3, §4

[2] = 1 h pre-incubation, ATP at Km, pIC50 converted to pKi by Cheng-Prusoff

Row | Compound | JAK 3 (pKi) (JAK3; [2]) | JAK3 (pKi)-JAK1 (pKi) (JAK3) | IC50 [1] | JAK 1 (pKi) (JAK1) | Ki (JAK3; [2]) | Ki (JAK1) | Ki (JAK3)
1 | C=CC(=O)N1CC(COc2cc(-c3ccc(O)cc3)cn3cnnc23)C1 [Example 5, 1-(3-(((6-(4-hydroxyphenyl)-[1,2,4]triazolo[4,3-a]pyridin-8-yl)oxy)methyl)azetidin-1-yl)prop-2-en-1-one] | A (A represents a pKi value≥10 (Ki≤0.1 nM)) | A (A represents a value of 3 or above) | 200 to 1000 nM | E (E represents a pKi value of 7 or below (Ki of 100 nM or above)) | – | – | –
2 | C=CC(=O)N1[C@@H]2CC[C@H]1C[C@H](Oc1cc(-c3ccc(O)cc3)cn3cncc13)C2 [Example 10, 1-((1R,3S,5S)-3-((6-(4-hydroxyphenyl)imidazo[1,5-a]pyridin-8-yl)oxy)-8-azabicyclo[3.2.1]octan-8-yl)prop-2-en-1-one] | – | – | 31.6 to 200 nM | – | – | – | –
3 | C=CC(=O)N1CCC(N(C)c2cc(-c3ccc(O)cc3)cn3cncc23)CC1 [Example 17] | C (C represents a pKi value between 8 and 9 (Ki between 10 nM and 1 nM)) | B (B represents a value of 2.3 to 3) | – | E (E represents a pKi value of 7 or below (Ki of 100 nM or above)) | – | – | –
4 | CCc1cc(O)c(F)cc1-c1cc(O[C@H]2CCCN(C(=O)/C=C/CN(C)C)C2)c2cncn2c1 [Example 18] | – | B (B represents a value of 2.3 to 3) | – | E (E represents a pKi value of 7 or below (Ki of 100 nM or above)) | 0.1 to 1 nM | – | –
5 | CN(C)C/C=C/C(=O)N1CC(COc2cc(-c3ccc(O)cc3)cn3cncc23)C1 [Example 19] | – | A (A represents a value of 3 or above) | 200 to 1000 nM | E (E represents a pKi value of 7 or below (Ki of 100 nM or above)) | 0.1 to 1 nM | – | –
6 | CN(C)C/C=C/C(=O)N1CC(COc2cc(-c3ccc(O)c(F)c3)cn3cncc23)C1 [Example 22] | – | A (A represents a value of 3 or above) | 200 to 1000 nM | E (E represents a pKi value of 7 or below (Ki of 100 nM or above)) | 0.1 to 1 nM | – | –
7 | CCc1cc(O)ccc1-c1cc(OCC2CN(C(=O)/C=C/CN(C)C)C2)c2cncn2c1 [Example 25] | – | A (A represents a value of 3 or above) | 200 to 1000 nM | E (E represents a pKi value of 7 or below (Ki of 100 nM or above)) | 0.1 to 1 nM | – | –
8 | C=CC(=O)N1CC(CSc2cc(-c3ccc(O)cc3)cn3cncc23)C1 [Example 29] | – | A (A represents a value of 3 or above) | 200 to 1000 nM | E (E represents a pKi value of 7 or below (Ki of 100 nM or above)) | 0.1 to 1 nM | – | –
9 | C=CC(=O)N1CC(COc2cc(-c3cc(F)c(O)c(F)c3)cn3cncc23)C1 [Example 32] | – | A (A represents a value of 3 or above) | 200 to 1000 nM | E (E represents a pKi value of 7 or below (Ki of 100 nM or above)) | 0.1 to 1 nM | – | –
10 | C=CC(=O)N1CC(COc2cc(-c3cc(C)c(O)c(C)c3)cn3cncc23)C1 [Example 35] | – | A (A represents a value of 3 or above) | 200 to 1000 nM | E (E represents a pKi value of 7 or below (Ki of 100 nM or above)) | 0.1 to 1 nM | – | –
11 | C=CC(=O)N1[C@@H]2CC[C@H]1C[C@@H](Oc1cc(-c3ccc(O)cc3)cn3cncc13)C2 [Example 36] | A (A represents a pKi value≥10 (Ki≤0.1 nM)) | A (A represents a value of 3 or above) | 31.6 to 200 nM | E (E represents a pKi value of 7 or below (Ki of 100 nM or above)) | – | – | –
12 | C=CC(=O)N1CC[C@H](Oc2cc(-c3ccc(O)cc3)cn3cncc23)C[C@@H]1C [Example 38] | – | A (A represents a value of 3 or above) | 31.6 to 200 nM | E (E represents a pKi value of 7 or below (Ki of 100 nM or above)) | 0.1 to 1 nM | – | –
13 | C=CC(=O)N1[C@H](C)C[C@H](Oc2cc(-c3ccc(O)cc3)cn3cncc23)C[C@@H]1C [Example 40] | – | B (B represents a value of 2.3 to 3) | 200 to 1000 nM | E (E represents a pKi value of 7 or below (Ki of 100 nM or above)) | 1 to 10 nM | – | –
14 | C=CC(=O)N1CC(COc2cc(-c3ccc(O)cc3C(F)(F)F)cn3cncc23)C1 [Example 42] | – | A (A represents a value of 3 or above) | 200 to 1000 nM | E (E represents a pKi value of 7 or below (Ki of 100 nM or above)) | 0.1 to 1 nM | – | –
15 | C=CC(=O)N1CC(COc2cc(-c3cc(C)c(O)cc3C)cn3cncc23)C1 [Example 43] | – | A (A represents a value of 3 or above) | 31.6 to 200 nM | E (E represents a pKi value of 7 or below (Ki of 100 nM or above)) | 0.1 to 1 nM | – | –
16 | C=CC(=O)N1CC(COc2cc(-c3ccc(O)cc3OC)cn3cncc23)C1 [Example 45] | – | A (A represents a value of 3 or above) | 200 to 1000 nM | E (E represents a pKi value of 7 or below (Ki of 100 nM or above)) | 0.1 to 1 nM | – | –
17 | C=CC(=O)N1CC2(CCC2Oc2cc(-c3cc(F)c(O)cc3CC)cn3cncc23)C1 (stereo not drawn) [Example 46] | – | B (B represents a value of 2.3 to 3) | 31.6 to 200 nM | E (E represents a pKi value of 7 or below (Ki of 100 nM or above)) | 0.1 to 1 nM | – | –
18 | C=CC(=O)N1CCC(Oc2cc(-c3cc(F)c(O)cc3CC)cn3cncc23)CC1 [Example 47] | A (A represents a pKi value≥10 (Ki≤0.1 nM)) | B (B represents a value of 2.3 to 3) | ≤ 31.6 nM | – | – | 10 to 100 nM | –
19 | C=CC(=O)N1[C@@H]2CC[C@H]1C[C@H](Oc1cc(-c3cc(F)c(O)cc3CC)cn3cncc13)C2 [Example 48] | A (A represents a pKi value≥10 (Ki≤0.1 nM)) | A (A represents a value of 3 or above) | ≤ 31.6 nM | – | – | 10 to 100 nM | –
20 | C=CC(=O)N1CCC(Oc2cc(-c3cc(F)c(O)cc3CC)cn3cncc23)C(F)(F)C1 (stereo not drawn) [Example 49] | – | C (C represents a value of 1.8 to 2.3) | ≤ 31.6 nM | – | – | 10 to 100 nM | 0.1 nM
21 | C=CC(=O)N1[C@@H]2CC[C@H]1C[C@H](Nc1cc(-c3ccc(O)cc3)cn3cncc13)C2 [Example 50] | – | B (B represents a value of 2.3 to 3) | – | E (E represents a pKi value of 7 or below (Ki of 100 nM or above)) | 1 to 10 nM | – | –
22 | C=CC(=O)N1CCC[C@H](Nc2cc(-c3ccc(O)cc3)cn3cncc23)C1 [Example 51] | – | B (B represents a value of 2.3 to 3) | – | E (E represents a pKi value of 7 or below (Ki of 100 nM or above)) | 1 to 10 nM | – | –
23 | C=CC(=O)N1CC(CNc2cc(-c3ccc(O)cc3)cn3cncc23)C1 [Example 52] | – | B (B represents a value of 2.3 to 3) | – | E (E represents a pKi value of 7 or below (Ki of 100 nM or above)) | 1 to 10 nM | – | –
